From publication PMC6941952, “A homogeneous bioluminescent immunoassay to probe cellular signaling pathway regulation” (Communications Biology, 2020)

Test system: phospho-IκBα (Ser32)
Experiment: NanoBiT cell-based immunoassay, phosphorylated IκBα in MCF-7 cells
Parameters: species or system human
Settings: for Raw data / Subtract reagent background: TNF
Procedure: Prior to NanoBiT Cell-Based Immunoassay, 50,000 cells were seeded in 160 µl of complete growth media per well of a 96-well plate and incubated overnight. The cells were checked under microscope and it was determined that 50,000 cells per well in 96-well plate is under 90% confluency for all cells tested. If necessary, the cell culture media were replaced with serum-free media after the cells were stably adherent on the plate and incubated overnight. To treat cells with activators or inhibitors, medium was changed to 30 µl of medium containing inhibitors. If activation of a specific pathway is needed, the cells were stimulated with 10 µl of medium containing activators. To lyse the cells, 10 µl of lysis buffer containing 0.1% digitonin diluted in 1X immunoassay buffer with protease and phosphatase inhibitors was added and the plates were mixed vigorously for 20 min. Then, 50 µl of an antibody mix containing two primary antibodies against the target protein and NanoBiT detecting antibodies (0.3 µl each per well), diluted in 1X immunoassay buffer was added to the lysates. The plates were incubated at 23 °C for 90 min, followed by the addition of 25 µl of Nano-Glo® reagent consisting of Nano-Glo® Luciferase Assay Substrate mixed with 1X immunoassay buffer. Luminescence was measured using a plate-reading luminometer.
In all, 50,000 MCF-7 cells were seeded in 160 µl complete growth medium per well of a 96-well plate and incubated overnight. Half of the cells were treated with 50 ng per ml TNFα and half with vehicle. Cells were lysed as described above and a mixture of NanoBiT secondary antibodies with primary antibodies at the matrix concentrations described in Fig. 2a were added. After 90 min incubation, the Nano-Glo® reagent was added to the reactions as described above and luminescence was measured using a plate-reading luminometer.
Single dose or dose response inhibitor treatments were performed prior to activation of the pathways as follows. For IκBα, the cells were treated in 30 µl medium with IKK16 or MG132 for 60 min before the addition of 10 µl of DMEM containing appropriate concentration of TNFα. To measure phosphorylation of AKT or STAT3, the corresponding NanoBiT immunoassays were developed with MCF-7 or A431 cells, respectively, according the same scheme used to develop the IκBα assay using the primary antibodies for AKT and STAT3 described in the reagents section. For the AKT assay, MCF-7 cells were incubated overnight in phenol-red free DMEM medium (Gibco #21063-029) without serum. Treatment with LY294002 was performed in 30 µl medium and cells were incubated for 60 min before the addition of 1 µM Insulin. To measure STAT3 phosphorylation, A431 cells were incubated overnight in DMEM medium without serum. […] After addition of the stimulators, the cells were incubated for additional times as follows. IκBα phosphorylation and degradation analyses required both time courses and single time points as described in figures. […] The NanoBiT immunoassay protocol was followed as described above.
All 96-well assay plates were read using a GloMax® 96 Microplate Luminometer from Promega. The instrument was set to 0.5 s integration time. In order to obtain net change of signal, the reagent background values (signal from the well containing all reagent except primary antibodies) were subtracted from the sample values. To plot and analyze the data, Microsoft Excel and GraphPad Prism® Software were used. IC50 values were determined by using a nonlinear regression fit to a sigmoidal dose response (variable slope).

[1] = plate #3, IkB Ab #3 75 ng/ml, P-IkB Ab #2 75 ng/ml
[2] = plate #3, IkB Ab #3 75 ng/ml, P-IkB Ab #2 150 ng/ml
[3] = plate #3, IkB Ab #3 75 ng/ml, P-IkB Ab #2 300 ng/ml
[4] = plate #3, IkB Ab #3 75 ng/ml, P-IkB Ab #2 600 ng/ml
[5] = plate #3, IkB Ab #3 75 ng/ml, P-IkB Ab #2 1200 ng/ml
[6] = plate #3, IkB Ab #3 150 ng/ml, P-IkB Ab #2 75 ng/ml
[7] = plate #3, IkB Ab #3 150 ng/ml, P-IkB Ab #2 150 ng/ml
[8] = plate #3, IkB Ab #3 150 ng/ml, P-IkB Ab #2 300 ng/ml
[9] = plate #3, IkB Ab #3 150 ng/ml, P-IkB Ab #2 600 ng/ml
[10] = plate #3, IkB Ab #3 150 ng/ml, P-IkB Ab #2 1200 ng/ml
[11] = plate #3, IkB Ab #3 300 ng/ml, P-IkB Ab #2 75 ng/ml
[12] = plate #3, IkB Ab #3 300 ng/ml, P-IkB Ab #2 150 ng/ml
[13] = plate #3, IkB Ab #3 300 ng/ml, P-IkB Ab #2 300 ng/ml
[14] = plate #3, IkB Ab #3 300 ng/ml, P-IkB Ab #2 600 ng/ml
[15] = plate #3, IkB Ab #3 300 ng/ml, P-IkB Ab #2 1200 ng/ml
[16] = plate #3, IkB Ab #3 600 ng/ml, P-IkB Ab #2 75 ng/ml
[17] = plate #3, IkB Ab #3 600 ng/ml, P-IkB Ab #2 150 ng/ml
[18] = plate #3, IkB Ab #3 600 ng/ml, P-IkB Ab #2 300 ng/ml
[19] = plate #3, IkB Ab #3 600 ng/ml, P-IkB Ab #2 600 ng/ml
[20] = plate #3, IkB Ab #3 600 ng/ml, P-IkB Ab #2 1200 ng/ml
[21] = plate #3, IkB Ab #3 1200 ng/ml, P-IkB Ab #2 75 ng/ml
[22] = plate #3, IkB Ab #3 1200 ng/ml, P-IkB Ab #2 150 ng/ml
[23] = plate #3, IkB Ab #3 1200 ng/ml, P-IkB Ab #2 300 ng/ml
[24] = plate #3, IkB Ab #3 1200 ng/ml, P-IkB Ab #2 600 ng/ml
[25] = plate #3, IkB Ab #3 1200 ng/ml, P-IkB Ab #2 1200 ng/ml

TNFα
Fold change (TNF-treated /Non-treated) (plate #2, IkB Ab #2 (Mouse) 600 ng/ml, P-IkB Ab #1 (Rabbit) 1200 ng/ml, listed as TNF): 0.8
Fold change (TNF-treated /Non-treated) (plate #2, IkB Ab #2 (Mouse) 1200 ng/ml, P-IkB Ab #1 (Rabbit) 75 ng/ml): 1.511
Fold change (TNF-treated /Non-treated) (plate #2, IkB Ab #2 (Mouse) 1200 ng/ml, P-IkB Ab #1 (Rabbit) 75 ng/ml, listed as TNF): 1.5
Fold change (TNF-treated /Non-treated) (plate #2, IkB Ab #2 (Mouse) 1200 ng/ml, P-IkB Ab #1 (Rabbit) 150 ng/ml): 2.468
Fold change (TNF-treated /Non-treated) (plate #2, IkB Ab #2 (Mouse) 1200 ng/ml, P-IkB Ab #1 (Rabbit) 150 ng/ml, listed as TNF): 2.5
Fold change (TNF-treated /Non-treated) (plate #2, IkB Ab #2 (Mouse) 1200 ng/ml, P-IkB Ab #1 (Rabbit) 300 ng/ml): 2.168
Fold change (TNF-treated /Non-treated) (plate #2, IkB Ab #2 (Mouse) 1200 ng/ml, P-IkB Ab #1 (Rabbit) 300 ng/ml, listed as TNF): 2.2
Fold change (TNF-treated /Non-treated) (plate #2, IkB Ab #2 (Mouse) 1200 ng/ml, P-IkB Ab #1 (Rabbit) 600 ng/ml): 2.1086
Fold change (TNF-treated /Non-treated) (plate #2, IkB Ab #2 (Mouse) 1200 ng/ml, P-IkB Ab #1 (Rabbit) 600 ng/ml, listed as TNF): 2.1
Fold change (TNF-treated /Non-treated) (plate #2, IkB Ab #2 (Mouse) 1200 ng/ml, P-IkB Ab #1 (Rabbit) 1200 ng/ml): 1.784
Fold change (TNF-treated /Non-treated) (plate #2, IkB Ab #2 (Mouse) 1200 ng/ml, P-IkB Ab #1 (Rabbit) 1200 ng/ml, listed as TNF): 1.8
Raw data [1]: 20510
Subtract reagent background [1]: 5320
Raw data [2]: 20430
Subtract reagent background [2]: 5240
Raw data [3]: 19120
Subtract reagent background [3]: 3930
Raw data [4]: 17590
Subtract reagent background [4]: 2400
Raw data [5]: 16090
Subtract reagent background [5]: 900
Raw data [6]: 27550
Subtract reagent background [6]: 12360
Raw data [7]: 26450
Subtract reagent background [7]: 11260
Raw data [8]: 24490
Subtract reagent background [8]: 9300
Raw data [9]: 21590
Subtract reagent background [9]: 6400
Raw data [10]: 19970
Subtract reagent background [10]: 4780
Raw data [11]: 26220
Subtract reagent background [11]: 11030
Raw data [12]: 24040
Subtract reagent background [12]: 8850
Raw data [13]: 23970
Subtract reagent background [13]: 8780
Raw data [14]: 20830
Subtract reagent background [14]: 5640
Raw data [15]: 19500
Subtract reagent background [15]: 4310
Raw data [16]: 24590
Subtract reagent background [16]: 9400
Raw data [17]: 22810
Subtract reagent background [17]: 7620
Raw data [18]: 23190
Subtract reagent background [18]: 8000
Raw data [19]: 21540
Subtract reagent background [19]: 6350
Raw data [20]: 20460
Subtract reagent background [20]: 5270
Raw data [21]: 23630
Subtract reagent background [21]: 8440
Raw data [22]: 23620
Subtract reagent background [22]: 8430
Raw data [23]: 22930
Subtract reagent background [23]: 7740
Raw data [24]: 22240
Subtract reagent background [24]: 7050
Raw data [25]: 21740
Subtract reagent background [25]: 6550
Fold change (TNF-treated /Non-treated) (plate #3, IkB Ab #3 (Rabbit) 150 ng/ml, P-IkB Ab #2 (Mouse) 75 ng/ml): 3.572
Fold change (TNF-treated /Non-treated) (plate #3, IkB Ab #3 (Rabbit) 150 ng/ml, P-IkB Ab #2 (Mouse) 150 ng/ml): 2.066
Fold change (TNF-treated /Non-treated) (plate #3, IkB Ab #3 (Rabbit) 150 ng/ml, P-IkB Ab #2 (Mouse) 300 ng/ml): 1.553
Fold change (TNF-treated /Non-treated) (plate #3, IkB Ab #3 (Rabbit) 150 ng/ml, P-IkB Ab #2 (Mouse) 600 ng/ml): 1.339
Fold change (TNF-treated /Non-treated) (plate #3, IkB Ab #3 (Rabbit) 150 ng/ml, P-IkB Ab #2 (Mouse) 1200 ng/ml): 0.8968
Fold change (TNF-treated /Non-treated) (plate #3, IkB Ab #3 (Rabbit) 300 ng/ml, P-IkB Ab #2 (Mouse) 75 ng/ml): 2.895
Fold change (TNF-treated /Non-treated) (plate #3, IkB Ab #3 (Rabbit) 300 ng/ml, P-IkB Ab #2 (Mouse) 150 ng/ml): 1.664
Fold change (TNF-treated /Non-treated) (plate #3, IkB Ab #3 (Rabbit) 300 ng/ml, P-IkB Ab #2 (Mouse) 300 ng/ml): 1.602
Fold change (TNF-treated /Non-treated) (plate #3, IkB Ab #3 (Rabbit) 300 ng/ml, P-IkB Ab #2 (Mouse) 600 ng/ml): 1.153
Fold change (TNF-treated /Non-treated) (plate #3, IkB Ab #3 (Rabbit) 300 ng/ml, P-IkB Ab #2 (Mouse) 1200 ng/ml): 0.9289
Fold change (TNF-treated /Non-treated) (plate #3, IkB Ab #3 (Rabbit) 600 ng/ml, P-IkB Ab #2 (Mouse) 75 ng/ml): 2.035
Fold change (TNF-treated /Non-treated) (plate #3, IkB Ab #3 (Rabbit) 600 ng/ml, P-IkB Ab #2 (Mouse) 150 ng/ml): 1.414
Fold change (TNF-treated /Non-treated) (plate #3, IkB Ab #3 (Rabbit) 600 ng/ml, P-IkB Ab #2 (Mouse) 300 ng/ml): 1.541
Fold change (TNF-treated /Non-treated) (plate #3, IkB Ab #3 (Rabbit) 600 ng/ml, P-IkB Ab #2 (Mouse) 600 ng/ml): 1.301
Fold change (TNF-treated /Non-treated) (plate #3, IkB Ab #3 (Rabbit) 600 ng/ml, P-IkB Ab #2 (Mouse) 1200 ng/ml): 1.1557
Fold change (TNF-treated /Non-treated) (plate #3, IkB Ab #3 (Rabbit) 1200 ng/ml, P-IkB Ab #2 (Mouse) 75 ng/ml): 1.581
Fold change (TNF-treated /Non-treated) (plate #3, IkB Ab #3 (Rabbit) 1200 ng/ml, P-IkB Ab #2 (Mouse) 150 ng/ml): 1.544
Fold change (TNF-treated /Non-treated) (plate #3, IkB Ab #3 (Rabbit) 1200 ng/ml, P-IkB Ab #2 (Mouse) 300 ng/ml): 1.173
Fold change (TNF-treated /Non-treated) (plate #3, IkB Ab #3 (Rabbit) 1200 ng/ml, P-IkB Ab #2 (Mouse) 600 ng/ml): 1.469
Fold change (TNF-treated /Non-treated) (plate #3, IkB Ab #3 (Rabbit) 1200 ng/ml, P-IkB Ab #2 (Mouse) 1200 ng/ml): 1.2818
